Marks after values point to notes of the source that are not given here.
Assays:
[1] = SPAAC selective interception of GdDO3A-DBCO monoamide chelate on azide terminated PS beads, Gd in supernatant by ICP-MS; settings: for % Gd Remaining: 50° C., 1,000 rpm, 24 hours
Description: To address potential stability issues associated with the GdTTHA-Alkyne and azide-PS beads system, tri-acetate mono-amide chelate systems were tested, that may experience fewer experimental difficulties. The initial SPAAC reactions were carried out with GdDO3A-DBCO monoamide chelate and azide terminated bead (FIG. 13). The Gd^3+ concentration was temporally monitored in the supernatant to gain a sense of reaction kinetics and optimal reaction times. To avoid mechanical stirring, a temperature-controlled thermomixer was used which mixed through agitation and was capable of batch testing. And the reaction was analyzed by ICP-MS.
All experiments were performed on a 100 mg bead scale with 0.5 equivalents of GdDO3A-DBCO monoamide chelate in water (1 mL) agitated at 1,000 rpm and 50° C. […] were selected: 3 minutes, 3 hours, 6 hours, 9 hours and 24 hours. The reactions were stopped at their respective time point, the sample was centrifuged and the supernatant was decanted and filtered. The beads were washed and centrifuged three times before the filtered supernatant was freeze dried and digested in HNO3 for ICP-MS analysis.
The effect of pH at relevant pH ranges of urine (~4.5-8) on the efficiency of Gd removal was investigated. Additionally, the role of an organic cosolvent was investigated to determine whether the aqueous medium is a limiting factor in efficiency. A pH range of 5-9 was tested with 1:1 v:v DMSO:H2O at 50° C. stirring at 1,000 rpm for 24 hours. The reaction mixtures were centrifuged, and the supernatant was decanted and filtered. The beads were washed and centrifuged in triplicate and the supernatants were freeze dried and digested for ICP-MS analysis, data summarized below in Table 1.
A multivariate approach was designed to establish the interaction between various levels of cosolvent volume, reaction time and temperature. The volume of DMSO was lowered with the hope of identifying other contributing factors that would lead to an enhanced outcome using a minimal amount of organic cosolvent. Additionally, the temperature ranged from 25° C. to 50° C. and the reaction time was assessed over 0.5 hours and 24 hours, and at pH 7. The scale of the beads and GdDO3A-DBCO monoamide chelate remained the same as previous trials at a 100 mg scale with 0.5 equivalents of GBCA while mixing at 1,000 rpm. The beads were centrifuged, washed, and digested in nitric acid for ICP-MS analysis using the methods described previously, results summarized below in Table 2.
Following the suboptimal results from previous trials with a smaller volume of DMSO cosolvent, the range of added cosolvent was increased to 50% v:v. Additionally, a simulated urine matrix, Surine™, was added to test if there were any significant effects from any urine constituents on the reaction efficiency. The experiments were run with variable reaction times, matrix and percentage DMSO at pH 7 and 37° C.

[2] = Temperature-dependent 17O R2p transverse relaxation rate (67.8 MHz, 11.74 T) and fitting; format: physicochemical; settings: for τM, water residence lifetime / AO/h / Δ HM: fitted; for τM, water residence lifetime: pH 7.0 (GdDO3A-N3-monoamide), pH 6.8 (GdDO3A-DBCO-monoamide); for AO/h / Δ HM: pH 7.0 (N3), pH 6.8 (DBCO)
Description: FIG. 18 is a plot illustrating the GdDO3A-DBCO monoamide temperature-dependent R2p relaxation rate of ^17O measured at 67.8 MHz (11.74 T) pH 6.8, and a Gd^3+ concentration of 6.5 mM.
FIG. 20 is a plot illustrating the GdDO3A-azido monoamide temperature-dependent R2p relaxation rate of ^17O measured at 67.8 MHz (11.74 T) pH 7.0, and a Gd^3+ concentration of 8.5 mM.
(§1) Previous work by the inventors has shown that chelates functionalized with bulky aromatic groups have the propensity to self-associate in solution. […] The most common methods to determine the physico-chemical properties described by SBM theory are through fittings of experimental data obtained from the reduced ^17O transverse relaxation rate, R2p, as a function of temperature and relaxivity, ri, as a function of proton Larmor frequency i.e. nuclear magnetic resonance dispersion (NMRD) profiles.
Analysis of the reduced transverse relaxation rate constant of ^17O (R2p) as a function of temperature is the most common experimental technique to determine water residence lifetime, τM. The function typically resembles a bell curve where the inflection point temperature is an indicator of water exchange kinetics. The experiments were performed at a pH of 6.8 and a Gd^3+ concentration of 6.5 mM. Precipitation was observed below 295 K. The ^17O curve reached an inflection point at about 310 K, and the fitted value of τM was 545 ns, comparatively slow in the context of achieving high relaxivities but fast enough that exchange is in the fast exchange regime and rl is sensitive to changes in molecular tumbling, […].
Unsurprisingly, the shape is nearly identical to the DBCO-containing counterpart; both are monoamides and a similar water exchange rate would be expected. In this case, the water residence lifetime time constant (τM) was equivalent to the DBCO ligand at 545 ns.

[3] = 1H NMRD relaxivity profiles and parametric fitting (SBM / Lipari-Szabo); format: physicochemical; design: ^298D: unit not given here; settings: for ^22r1 (298K), relaxivity: 20 MHz; for ^22r1 (298K), relaxivity / ER / Δ^2 / τRG, global rotational correlation time constant / τV: pH 7.0 (N3), pH 6.8 (DBCO); for EV / ^298D / a / q / r: fixed during fitting
Description: FIG. 19 is a plot illustrating the GdDO3A-DBCO monoamide ^1H NMRD profiles at 283 (blue, top line), 298 (black, middle line) and 310 K (red, lower line), measured at pH 6.8, and a Gd^3+ concentration of 1.32 mM.
FIG. 21 is a plot illustrating the GdDO3A-azido monoamide ^1H NMRD profiles at 283 (blue, top line), 298 (black, middle line) and 310 K (red, lower line), measured at pH 7.0.
as §1
The NMRD profiles of GBCAs are used to characterize several important physico-chemical parameters described by SBM theory. The most influential parameter which affects the shape of an NMRD curve is the rotational correlation time constant (τR) of the complex. Macromolecular species which tumble slowly impart a positive impact on relaxivity at all fields, but particularly at high fields presented as a characteristic “hump” in the 10-60 MHz region, distinct from quickly tumbling chelates in which relaxivity continues to decrease with increasing field strength. The molecular weight of the GdDO3A-DBCO monoamide would not be considered a large macromolecular structure; any indication of a slowly tumbling complex would be indicative of an aggregate species which we hypothesized as the self-associating chelate. As shown below in FIG. 19, relaxivity is quite high in low field regions where electronic spin relaxation contributes, followed by a characteristic dispersion around 1 MHz when the contribution drops off. There is a “hump” around 20 MHz which is indicative of a slowly tumbling species, consistent with a self-associating chelate. This macromolecular structure is the source of a rather high relaxivity of 7.1 mM^−1s^−1 (20 MHz, pH 6.8, 298 K) in comparison to most clinical agents which remain in the 4 mM^−1 s^−1-5 mM^−1s^−1 range.
The global and local rotational correlation time constants were 375 ps and 107 ps, respectively. […] This further corroborated the presence of a self-association which led to a decrease in the efficiency observed in selective interception trials.
The dispersion at 1-10 MHz corresponded to a typical drop-off of the electronic spin relaxation contribution, followed by continued decrease in relaxivity with increasing field strength. There was no evidence of a slowly tumbling structure which was reflected in a standard parametric fitting procedure with one discrete rotational contribution.

[4] = SPAAC selective interception of GdDO3A-azido monoamide chelate on DBCO-PS beads, Gd by ICP-MS; settings: pH 7, 37° C.
Description: The GdDO3A-azido monoamide chelate and DBCO-PS beads shown in FIG. 15 were utilized in a similar experiment described previously. Due to the expensive DBCO starting material, the beads were generated on small scales. Accordingly, the scales of the experiments were reduced to 50 mg bead starting material and 0.5 equivalents of GBCA consistent with the loading capacity determined for each batch of DBCO-PS. All other conditions remained constant (1 mL reaction volume, 37° C., 1,000 rpm mixing at pH 7). Samples were prepared for ICP-MS analysis using the same method as previously described with fewer dilutions. The experiments were run with variable reaction times, matrix, and percentage DMSO.

[5] = 20 MHz and 298 K, comparison value; cited from earlier work
[6] = fitted, Lipari-Szabo approach, pH 6.8

Question: Which results are given for O=C([O-])CN1CCN(CC(=O)[O-])CCN(CC(=O)NCCC(=O)N2Cc3ccccc3C#Cc3ccccc32)CCN(CC(=O)[O-])CC1.[Gd+3] [GdDO3A-DBCO monoamide]?
Answer: Gd Remaining (%) ([1]; Entry 1: 0.5 hr, Water, 0% DMSO, pH 7, 37° C.): 27%; Gd Remaining (%) ([1]; Entry 1: cosolvent 0 μL, 25 °C, 0.5 hr, pH 7): 71%; Gd Remaining (%) ([1]; Entry 2: 0.5 hr, Water, 50% DMSO, pH 7, 37° C.): 28%; Gd Remaining (%) ([1]; Entry 2: cosolvent 0 μL, 25 °C, 24 hr, pH 7): 70%; Gd Remaining (%) ([1]; Entry 3: 8 hr, Water, 0% DMSO, pH 7, 37° C.): 27%; Gd Remaining (%) ([1]; Entry 3: cosolvent 100 μL, 25 °C, 0.5 hr, pH 7): 68%; Gd Remaining (%) ([1]; Entry 4: 8 hr, Water, 50% DMSO, pH 7, 37° C.): 18%; Gd Remaining (%) ([1]; Entry 4: cosolvent 100 μL, 25 °C, 24 hr, pH 7): 69%; Gd Remaining (%) ([1]; Entry 5: 0.5 hr, Surine, 0% DMSO, pH 7, 37° C.): 28%; Gd Remaining (%) ([1]; Entry 5: cosolvent 0 μL, 50 °C, 0.5 hr, pH 7): 67%; Gd Remaining (%) ([1]; Entry 6: 0.5 hr, Surine, 50% DMSO, pH 7, 37° C.): 29%; Gd Remaining (%) ([1]; Entry 6: cosolvent 0 μL, 50 °C, 24 hr, pH 7): 65%; Gd Remaining (%) ([1]; Entry 7: 8 hr, Surine, 0% DMSO, pH 7, 37° C.): 30%; Gd Remaining (%) ([1]; Entry 7: cosolvent 100 μL, 50 °C, 0.5 hr, pH 7): 69%; Gd Remaining (%) ([1]; Entry 8: 8 hr, Surine, 50% DMSO, pH 7, 37° C.): 20%; Gd Remaining (%) ([1]; Entry 8: cosolvent 100 μL, 50 °C, 24 hr, pH 7): 67%; second order rate constant of interception reaction ([1]; extrapolated from integrated second order rate law, FIG. 14): 48.4 M⁻¹ s⁻¹; % Gd Remaining ([1]; pH 5, 1:1 v:v DMSO:H2O): 1.64%; % Gd Remaining ([1]; pH 7, 1:1 v:v DMSO:H2O): 2%; % Gd Remaining ([1]; pH 9, 1:1 v:v DMSO:H2O): 1.6%; τM, water residence lifetime [2]: 545 ns; AO/h [2]: −3.0 10^6 rad s^−1; Δ HM [2]: 11 kcal/mol; inflection point of 17O R2p curve ([2]; pH 6.8, Gd^3+ 6.5 mM): about 310 K; temperature below which precipitation was observed ([2]; pH 6.8, Gd^3+ 6.5 mM): below 295 K; ^22r1 (298K), relaxivity [3]: 7.1 mM⁻¹ s⁻¹; aggregate rotates more slowly than the discrete chelate (global vs local rotation), fold ([3]; Lipari-Szabo fitting): over 3 ×; S^□ [3, 6]: 0.36; τRL, local rotational correlation time constant [3, 6]: 107 ps; ER ([3]; fitted): 4.78 kcal/mol; Δ^2 ([3]; fitted): 3.5 10^19 s^−2; τRG, global rotational correlation time constant ([3]; fitted): 375 ps; τV ([3]; fitted): 13 ps; EV [3]: 1.0^a kJ mol^−1; ^298D [3]: 2.24; a [3]: 4.0^a Å; q [3]: 1^a; r [3]: 3.0^a Å

Question: What does the source list for [Gd+3].[N-]=[N+]=NCCCNC(=O)CN1CCN(CC(=O)[O-])CCN(CC(=O)[O-])CCN(CC(=O)[O-])CC1 [GdDO3A-azido monoamide]?
Answer: τM, water residence lifetime [2]: 545 ns; AO/h [2]: −3.2 10^6 rad s^−1; Δ HM [2]: 11 kcal/mol; Gd Remaining (%) ([4]; Entry 1: 0.5 hr, Water, 0% DMSO): 39%; Gd Remaining (%) ([4]; Entry 2: 0.5 hr, Water, 50% DMSO): 36%; Gd Remaining (%) ([4]; Entry 3: 8 hr, Water, 0% DMSO): 40%; Gd Remaining (%) ([4]; Entry 4: 8 hr, Water, 50% DMSO): 35%; Gd Remaining (%) ([4]; Entry 5: 0.5 hr, Surine, 0% DMSO): 27%; Gd Remaining (%) ([4]; Entry 6: 0.5 hr, Surine, 50% DMSO): 37%; Gd Remaining (%) ([4]; Entry 7: 8 hr, Surine, 0% DMSO): 39%; Gd Remaining (%) ([4]; Entry 8: 8 hr, Surine, 50% DMSO): 38%; ^22r1 (298K), relaxivity [3]: 4.7 mM⁻¹ s⁻¹; ER ([3]; fitted): 4.28 kcal/mol; Δ^2 ([3]; fitted): 5.7 10^19 s^−2; τRG, global rotational correlation time constant ([3]; fitted): 70 ps; τV ([3]; fitted): 8.4 ps; EV [3]: 1.0^a kJ mol^−1; ^298D [3]: 2.24; a [3]: 4.0^a Å; q [3]: 1^a; r [3]: 3.0^a Å

Question: With O=C([O-])CN1CCN(CC(=O)[O-])CCN(CC(=O)O)CCN(CC(=O)[O-])CC1.[Gd+3] [GdDOTA] as the compound, how does the relaxivity [5] read?
Answer: 4.5 mM⁻¹ s⁻¹

Reference: patent publication US20260226079A1, “A STRATEGY FOR THE SELECTIVE REMOVAL OF MRI CONTRAST AGENTS” (Portland State University, priority 2023, published 2026)
